According to patent US20220296629A1, “HUMAN HEAD AND NECK CANCER TREATMENT” (CARMEL HAIFA […] CORPORATION LTD., priority 2019, published 2022):

How the values were obtained:
miR-193a = miR-193a expression levels in Fadu cells by quantitative real-time PCR; format: cell-based, Homo sapiens; settings: 5 μM, 48 hours, U6 normalization, vs 0.01% DMSO control
Experimental: FIG. 8 includes a vertical bar graph showing Real-time analysis of miRNA expression patterns in Fadu Cells. The expression levels of miRNAs; hsa-mir193a were analysed using Quantitative real-time PCR, following 5-aza-2′ -deoxycytidine cell treatment. Data represented as average of three independent experiments conducted in triplicates (mean±SD) and U6 was used as normalization. Statistical significance determined by a two-tailed Student's t-test. Significance was determined as follows: ***P<0.01.
miRNA was isolated using mirVana™ miRNA Isolation Kit (Ambion®) according the manufacturer's protocol, the mirVana™ kit utilizes two sequential GFFs, since the small […]
The concentration and purity of miRNA was assessed using NanoDrop™ lite spectrophotometer (NanodropTechnologies, Willmington, Del., USA). miRNA expression profiling was performed using the TaqMan microRNA arrays system (Applied Biosystems) with specific TaqMan primers and probes for miR-193a. cDNA was generated using TaqMan microRNA assay using Primers for the mir-193a with FAM/MGB. […] Real time PCR was carried out with Rotor Gene 6000 Real-Time PCR Machine-Bosch-Bosch, results were analyzed with delta delta Ct (ΔΔCt) method using the rotor Gene 6000 Real-Time PCR software. […]
miRNA were isolated, quantified, profiled and cDNA was generated. […]

Fadu cells [1] = test: XTT cell viability after transient transfection of Fadu cells; format: cell-based; settings: 1 μg plasmid, 48 hours post transfection, viability reduced to
Experimental: FIG. 2 includes a vertical bar graph of cell viability following miR-193a-5p plasmid transfection. Squamous cancer cells Fadu were transfected with pCMV-miR-193a, or with p-CMV-GFP (MOC plasmid), 48 hours post transfection. cell viability was detected by XTT. Presented data are means±SD of three experiments, each conducted in eight replicates, and are expressed as percentages of the respective control. ***P<0.001(Dunnett's test).
FIG. 3 includes a vertical bar graph of cell viability following miR-193a-5p plasmid transfection time course experiment. Squamous cancer cells Fadu were transfected with miR-193a-5p or with MOC plasmid, 24 hours, 48 hours and 72 hours post transfection. cell viability was detected by XTT. Presented data are means±SD of three experiments, each conducted in eight replicates, and are expressed as percentages of the respective control. Statistical significance determined by a two-tailed student's t-test. Significance was determined as follows: *P<0.05, **P<0.01 and ***P<0.001.
Fadu Cells were seeded in a 96 well plate (3×10^4 cells/well). […]
At the end of treatment, cell viability was measured using XTT. The data presented are average of at least three independent experiments; 8 repeats each (means±SEM), and are expressed as percentage of the respective vehicle treated control. […]

Fadu cells [2] = test: Fadu xenograft tumor growth in athymic nude mice; format: in vivo; settings: tumors harvested 21 days post treatment, P<0.0001
Experimental: FIG. 6 includes a graph presenting data from 16 athymic nude male mice which were subcutaneously injected with 1×10^6 Fadu cells. When the tumors reached a volume of 200 mm^3 the mice were divided into 2 groups of 8 mice each, with a similar dispersal of tumor volumes. Mice were injected once a week with intraperitoneal (IP) injection of either PBS×1 to the control group, or 1×10^10 vp AD-miR-193a, for 3 weeks. During the experiments, tumor volumes were measured twice a week using caliber meter. The results presented are the mean±SE. n=8 mice per experimental group.
FIGS. 7A-7B include vertical bar graphs showing the effect of miR-193a on final tumor weight (7A) and volume (7B). The results presented are the mean±SE. n=8 tumors per experimental group. Statistical significance for tumor weight determined by Mann-Whitney and for tumor volume by two-tailed Student's t-test (treatment vs. control). ***P<0.01.
Xenograft animal model were generated via injection of 1×10^6 Fadu cells in Matrigel subcutaneous in athymic nude mice immunodeficient mice. When the tumors reached a volume of 200 mm^3 the mice were divided into 2 groups of 8 mice each, with a similar dispersal of tumor volumes. […]
Tumors were measured by electronic calliper, once a week. 21 days post treatment the tumors were harvested and weight was measured.
The animals were sacrificed, and the tumors were removed, weighed and measured. […]

Row | Compound | Increase in miR-193a expression levels (miR-193a) | Cell viability (XTT), percentage of control (Fadu cells [1]; first experiment) | Cell viability (XTT), percentage of control (Fadu cells [1]; second and third experiment) | Final tumor volume vs control (Fadu cells [2]) | Final tumor weight vs control (Fadu cells [2])
1 | Nc1ncn([C@H]2C[C@H](O)[C@@H](CO)O2)c(=O)n1 [5-aza, 5-aza-2′ -deoxycytidine] | 132 folds | – | – | – | –
2 | miR-193a: Homo sapiens miR-193a, SEQ ID NO:1 UGGGUCUUUGCGGGCGAGAUGA; delivered as CMV plasmid or adenovirus AD-miR-193a (listed as Homo sapiens) | – | approximately 70% | ~40% | significantly reduced | significantly reduced
